The values below are quoted from earlier work in patent US8383585B2, “Biomarkers for cardiodiabetes” (IKFE Institut fur Klinische Forschung und Entwicklung GmbH, priority 2008, dated 2013).

Test systems include intact proinsulin; adiponectin; hsCRP.
Common to all, as to design: key: ↑: An up arrow indicates an increase in biomarker levels; ↓: a down arrow indicates a decrease; ◯: “O” indicates substantially no change
Conditions in all cases: effect on biomarker level in a subject

Turning to `CN(C)C(=N)N=C(N)N` [metformin], the intact proinsulin result with intact proinsulin was “↓”. For the same molecule, the adiponectin entry in the data set with adiponectin is given as “↑”. The hsCRP result in the data set on hsCRP is reported as “◯”.

insulin: in the data set on intact proinsulin, the intact proinsulin result is recorded as “↓”. Also, in the data set on adiponectin, the adiponectin entry is on record as “◯”. Also, the hsCRP entry in the data set with hsCRP was “◯”.
